Assay results taken from patent US20090054512A1, “USE OF ORGANIC COMPOUNDS” (priority 2006, published 2009).

Tested on: patients with type 2 diabetes
Assay: Randomized, double-blind, two-period crossover clinical study of 100 mg vildagliptin once daily in the morning or the evening
Assay type: in vivo, human

N#C[C@@H]1CCCN1C(=O)CNC12CC3CC(CC(O)(C3)C1)C2 [vildagliptin, (S)-1-[(3-hydroxy-1-adamantyl)amino]acetyl-2-cyano-pyrrolidine]
overnight HGP (hepatic glucose production) reduction (administered before or with the evening meal, especially patients with baseline HbA1c>8.0%): unexpected additional benefit on the overnight HGP reduction | overnight hepatic glucose production (at least 100 mg before or with the morning meal, or before or with the lunch, type 2 diabetes, especially baseline HbA1c>8.0%): can be reduced
